Reference: patent US11311613B2, “Development of agonist epitopes of the human papillomavirus” (priority 2016, dated 2022)
Like-named read-outs stand apart in the source and are kept apart here.

Legend:
[1] = tested on: CaSki cervical carcinoma cell line (HPV16 E6 and E7 positive HLA-A2 positive); assay: Lysis of CaSki tumor cells by peptide-specific CTLs; type: cell-based, human; set-up: key to Lysis: + denotes a greater level than the native epitope; = denotes the same level as the native epitope; − denotes a lower level than the native epitope; details: for % specific lysis (SD), CaSki (HLA-A2+ HPV E6+ and E7+): CTLs at IVS5, effector-to-target ratio 25:1; for Lysis: level compared with the native epitope; for lysis of CaSki cervical carcinoma cells (in words): compared to T cells generated with the native epitope counterpart
Description: (§1) HPV-specific T cells were generated using infection of dendritic cells (DCs) with Ad-HPV followed by stimulation of the T cells with each agonist and native peptide. In particular, DCs were infected with Ad5 HPV at 20,000 MOI. Infected DCs were used to generate specific CTLs using autologous PBMC. Autologous DCs were used as APCs for three in vitro stimulations (IVS). Autologous peptide-pulsed B cells were used to re-stimulate antigen-specific CTLs for two additional IVS. CTLs were used at IVS5.
(§2) Results are expressed in % specific lysis (SD). Effector-to-target ratio used was 25:1. CTLs were established from a normal HLA-A2 donor. CaSki is a cervical carcinoma cell line (HPV16 E6 and E7 positive HLA-A2 positive). ASPC-1 is a pancreatic cancer cell line (HPV16 E6 and E7 negative HLA-A2 negative).

[2] = tested on: ASPC-1 pancreatic cancer cell line (HPV16 E6 and E7 negative HLA-A2 negative); assay: Lysis of ASPC-1 control cells by peptide-specific CTLs; type: cell-based, human; details: CTLs at IVS5, effector-to-target ratio 25:1; for % specific lysis (SD), ASPC-1 (HLA-A2neg HPV E6neg and E7neg): Table 4; for % specific lysis (SD), ASPC-1: Table 5
Description: as §1, §2
as §2, with “HN-4 and HN-12 cells are head and neck squamous” for “CaSki is a cervical”, “lines (HLA-A2” for “line (HPV16 E6 and E7 positive HLA-A2”

[3] = tested on: CTL (T cells); assay: IFN-γ production by CTL stimulated by autologous B cells pulsed with corresponding peptide; type: cell-based, human; set-up: key to IFN-γ: + denotes a greater level than the native epitope; = denotes the same level as the native epitope; − denotes a lower level than the native epitope; details: for interferon production (in words): T cells stimulated by peptide-pulsed autologous B cells
Description: Autologous B cells were pulsed with each native and agonist E6 peptides to stimulate production of interferon by T cells.
Autologous B cells were pulsed with each native and agonist E7 peptides to stimulate production of interferon by T cells.

[4] = target: T1, HLA-A2 molecules (Homo sapiens, UniProt P04439, D140Y/D185E/D98H/E176V/E277Q/G131W/G231S/I119V/I121R/I166T/I218V/L300P/L318F/N151K/N90K/P208A/P217A/Q86G/Q94H/R138H/R169H/T345S); assay: T2A2 binding of HPV-16 E6/E7 peptides to HLA-A2; set-up: T2A2 Binding: unit not given here
T1 construct: endogenous in cells; host or cells: T2A2 cells (T2 cell line expressing HLA-A2; only the column head names it)

[5] = tested on: HPV-specific T cell lines; assay: IFN-γ production by HPV-specific T cell lines stimulated with Ad5-infected human dendritic cells; type: cell-based; details: for activation of T cells directed against the epitope (in words): human DCs infected with Ad-5[E1,E2b^neg]HPV
Method: Human DC (6 day culture in IL-4 and GM-CSF) were infected with Ad5 [E1,E2b]-HPV vector and Ad5 [E1,E2b]-Null at 1×10^5/well (24-well plate) in 0.5 ml of AIM-V. Ad5 vectors were used at 20,000 MOI for 1 hour and then 1.5 ml of AIM-V were added to each well. Infected DCs were incubated for 48 hours and then washed and used for stimulation of human antigen-specific T cells. Results are expressed in pg of IFN-γ per 5×10^5 T cells/ml. DC only=<0.73 pg/ml.

[6] = tested on: HN-12 head and neck squamous carcinoma cell line (HLA-A2 positive); assay: Lysis of HN-12 cells by peptide-specific CTLs; type: cell-based, human; details: for % specific lysis (SD), HN-12: CTLs at IVS5, effector-to-target ratio 25:1; for lysis of HN-12 (in words): compared to native counterparts
Description: as §1
as §2, with “HN-4 and HN-12 cells are head and neck squamous” for “CaSki is a cervical”, “lines (HLA-A2” for “line (HPV16 E6 and E7 positive HLA-A2”

[7] = tested on: HN-4 head and neck squamous carcinoma cell line (HLA-A2 positive); assay: Lysis of HN-4 cells by peptide-specific CTLs; type: cell-based, human; details: for % specific lysis (SD), HN-4: CTLs at IVS5, effector-to-target ratio 25:1; for lysis of HN-4 (in words): compared to native counterparts
Description: as §1
as §2, with “HN-4 and HN-12 cells are head and neck squamous” for “CaSki is a cervical”, “lines (HLA-A2” for “line (HPV16 E6 and E7 positive HLA-A2”

[8] = CTL line stimulated by autologous B cells pulsed with corresponding HPV-16 E6 peptide
[9] = E6 CTL line, autologous B cells with NO peptide
[10] = level compared with the native epitope
[11] = DCs infected with Ad5 [E1,E2b]-HPV (20,000 MOI)
[12] = DCs infected with Ad5 [E1,E2b]-Null (20,000 MOI)

Sequence	% specific lysis (SD), CaSki (HLA-A2+ HPV E6+ and E7+) [1]	% specific lysis (SD), ASPC-1 (HLA-A2neg HPV E6neg and E7neg) [2]	IFN-γ [3, 8]	IFN-γ [3, 9]	Lysis [1]	interferon production (in words) [3]	T2A2 Binding ([4]; binding to HLA-A2)	IFN-γ [5, 11]	IFN-γ [5, 12]	IFN-γ ([5]; DCs only (uninfected))	IFN-γ ([5]; No DCs)	% specific lysis (SD), ASPC-1 [2]	% specific lysis (SD), HN-12 [6]	% specific lysis (SD), HN-4 [7]	activation of T cells directed against the epitope (in words) [5]	lysis of CaSki cervical carcinoma cells (in words) [1]	lysis of HN-12 (in words) [6]	lysis of HN-4 (in words) [7]	also measured
KISEYRHYC [E6-2, reference compound]	45.1 (2.8) %	0.5 (0.7) %	455 pg/mL	<15.6 pg/mL															
KISEYRHYV [E6-A2]	24.2 (1.2) %	0.2 (0.5) %	172 pg/mL	<15.6 pg/mL	−	produced more interferon than the agonist counterpart	877												IFN-γ [3, 10]: −
KLPQLCTEL [E6-1, reference compound]	34.1 (3.6) %	2.4 (0.6) %	264 pg/mL	<15.6 pg/mL				114 pg of IFN-γ per 5×10^5 T cells/ml	<0.73 pg of IFN-γ per 5×10^5 T cells/ml	2.17 pg of IFN-γ per 5×10^5 T cells/ml	<0.73 pg of IFN-γ per 5×10^5 T cells/ml	0.3 (0.9) %	16.5 (1.7) %	21.2 (4.4) %					T2A2 Binding [4]: 853
KLPQLCTEV [E6-A1]	70.8 (10.7) %	-0.2 (6.6) %	699 pg/mL	<15.6 pg/mL		best interferon production	1,335	683 pg of IFN-γ per 5×10^5 T cells/ml	1.0 pg of IFN-γ per 5×10^5 T cells/ml	<0.73 pg of IFN-γ per 5×10^5 T cells/ml	0.89 pg of IFN-γ per 5×10^5 T cells/ml	0.2 (0.9) %	49.4 (3.1) %	46.2 (1.1) %	able to activate	Enhanced lysis	more lysis	more lysis	HLA-A2 binding (in words) [4]: strongest
QLYNKPLCDV [E6-A3]	49.1 (11.9) %	0.3 (0.9) %	653 pg/mL	<15.6 pg/mL	+		1,280	452 pg of IFN-γ per 5×10^5 T cells/ml	0.78 pg of IFN-γ per 5×10^5 T cells/ml	8.06 pg of IFN-γ per 5×10^5 T cells/ml	0.9 pg of IFN-γ per 5×10^5 T cells/ml	0.5 (0.8) %	38.4 (7.5) %	30.6 (5.3) %	able to activate	Enhanced lysis	more lysis	more lysis	A2 Binding [4, 10]: +
QQYNKPLCDL [E6-3, reference compound]	38.1 (3.3) %	0.6 (0.2) %	338 pg/mL	121 pg/mL			1,020	135 pg of IFN-γ per 5×10^5 T cells/ml	58.5 pg of IFN-γ per 5×10^5 T cells/ml	<0.73 pg of IFN-γ per 5×10^5 T cells/ml	<0.73 pg of IFN-γ per 5×10^5 T cells/ml	-1.1 (0.7) %	10.2 (3.8) %	7.0 (0.4) %					
